Values quoted from earlier work as cited in patent US8134031B2, “Extraction process for aldehyde product separation and catalyst recovery” (Dow Global Technologies LLC, priority 2007, dated 2012).
Counter-ions that a name gives are not always drawn.

Details: 22° C.; experimental value (Yaw's Handbook)

Row | SMILES | Solubility in water
1 | CCCC(=O)OCC [Ethyl butyrate] | 6168 ppmw
2 | CCCOC=O [Propyl formate] | 22000 ppmw

Same assay, conditions: 25° C.

Row | SMILES | H2O solubility
3 | C=CCCCCCC [1-Octene] | 4.10 ppm
4 | CCCCCCC [Heptane] | 2.24 ppmw
5 | CCCCCC [Hexane] | 13.3 ppmw

Same assay, conditions: 25° C.; estimated value (Yaw's Handbook)

Row | SMILES | Solubility in water
6 | CCC(O)C(C)C (stereo not drawn) [2-Methyl-3-pentanol] | 25882 ppmw
7 | CCC(C)C=O (stereo not drawn) [2-Methylbutanal] | 28212 ppmw
8 | CC(C)CC=O [3-Methylbutanal] | 27392 ppmw
9 | CCC(=O)C(C)C [Ethyl isopropyl ketone] | 22865 ppmw
10 | CCCOC(C)=O [Propyl acetate] | 16787 ppmw

Same assay, conditions: 25° C.; experimental value (Yaw's Handbook)

Row | SMILES | Solubility in water
11 | CCCCCCC=O [1-Heptanal] | 1516 ppmw
12 | C=CCCCCCC [1-Octene] | 4.10 ppmw
13 | CCCCCO [1-Pentanol] | 22000 ppmw
14 | CCCCC(C)=O [2-Hexanone] | 16400 ppmw
15 | CCC(C)CO (stereo not drawn) [2-Methyl-1-butanol] | 30000 ppmw
16 | CCCC(C)O (stereo not drawn) [2-Pentanol] | 45000 ppmw
17 | CCCC(=O)CC [3-Hexanone] | 14700 ppmw
18 | CC(C)CCO [3-Methyl-1-butanol] | 27000 ppmw
19 | CC(C)C(C)O (stereo not drawn) [3-Methyl-2-butanol] | 56000 ppmw
20 | CCC(O)CC [3-Pentanol] | 52000 ppmw
21 | O=C1CCCCC1 [Cyclohexanone] | 93190 ppmw
22 | CCC(=O)CC [Diethyl ketone] | 34000 ppmw
23 | CC(C)OC(C)C [Diisopropyl ether] | 11250 ppmw
24 | CCOC(C)=O [Ethyl acetate] | 73720 ppmw
25 | CCOC(=O)CC [Ethyl propanoate] | 22000 ppmw
26 | CCCCCCC [Heptane] | 2.24 ppmw
27 | CCCCCC [Hexane] | 13.3 ppmw
28 | CC(=O)OC(C)C [Isopropyl acetate] | 29000 ppmw
29 | CCCC(=O)OC [Methyl butyrate] | 15000 ppmw
30 | C=C(C)C(C)=O [Methyl isopropenyl ketone] | 47000 ppmw
31 | CC(=O)C(C)C [Methyl isopropyl ketone] | 60800 ppmw
32 | CCCC(C)=O [Methyl propyl ketone] | 55360 ppmw
33 | CCCCC=O [Pentanal] | 11700 ppmw
